Consider 21 compounds from patent publication US8569339B2, “Soluble guanylate cyclase activators” (Boehringer Ingelheim International GmbH, priority 2011, dated 2013).

Broadly, the EC50 is the concentration that produces a half-maximal response.

For data set [1], the target named is T1, Recombinant human soluble guanylate cyclase (sGC) (Homo sapiens, UniProt Q02153).
T1 construct: histidine tag (C); made in house; host or cells: Sf9 insect cells (baculovirus coinfection)
The experiment in a line: Molecular assay: activation of heme-free sGC, cGMP detection (CisBio kit). The data set is classed as biochemical. To be noted: 300 pM heme-free sGC, 37° C., 60 minutes, cGMP formation. The procedure: The compounds of the invention may be evaluated in the following molecular assay:
Recombinant human soluble guanylate cyclase (sGC) is purified from Sf9 insect cells coinfected with baculoviruses expressing the alpha 1 or beta 1 subunit of sGC, both with a C-terminal histidine tag. Heme-free sGC is prepared by treating cell lysate with a final concentration of 0.5% Tween 20 prior to purification on a nickel affinity column.
sGC catalyzes the conversion of guanosine-5′-triphosphate (GTP) to cyclic guanosine monophosphate (cGMP). The activity of sGC is measured in vitro using the commercially available CisBio cGMP detection kit (catalog #62GM2PEB) in a 384 well format. In brief, 300 pM heme-free sGC is incubated in reaction buffer (50 mM MOPS pH 6.8, 0.2 N KOH, 50 mM NaCl, 2 mM MgCl2, 0.1% BSA, 1.25 mM IBMX, 0.25 mM TCEP, 50 nM GTP) in the presence or absence of dilutions of test compounds diluted in DMSO (final concentration of 1%) in a volume of 10 microL at 37° C. for 60 minutes. Undiluted reaction products or an 80-fold dilution of reaction products (10 microL of either) prepared in reaction buffer containing 0.2 mM TCEP and 10 mM EDTA is mixed with 5 microL of d2-cGMP plus 5 microL of Eu^3+cryptate-labeled anti-cGMP, each diluted in buffer containing 0.1 M KPO4 pH 7.5, 0.4 M KF, 20 mM EDTA, 0.2% BSA. After a one hour incubation at room temperature in the dark, the mixtures are quantified on an EnVision plate reader (PerkinElmer) according to manufacturer instructions (laser excitation 337 nm, emission 620 and 665 nm). The ratio at each compound concentration is converted to nM cGMP using the linear portion of a calibration curve. Log compound concentration is plotted against combined undiluted and diluted nM cGMP values to determine the EC50 for each curve.
Representative compounds of the present invention were tested for activity in the above assay. Preferred compounds have an IC50<5,000 nM and more preferred compounds have an IC50<100 nM in this assay.

Data set [2] is described as follows: Assessment of solubility (HT solubility, pION, UV). The class given is physicochemical. The conditions noted are these: incubated 16-19 hours, 1.0% DMSO, 100 uM; for solubility kinetic: pH 4.5 buffer (pION system solution), pH 4.5, aqueous buffer, kinetic from dmso stock, pH 4.5 buffer, read-out: Sol pH 4.5; for Sol pH 7.4: pH 7.4 buffer. On the procedure:
Solubility is measured by the following method.
DMSO stock samples at 10 mM conc are prepared. […] The samples are pierced and 100 ul of thawed samples are transferred into the PCR plate for analysis. Each sample is run in duplicate at each pH (pH 4.5 and 7.4). Up to 95 samples can be run in replicate at 2 pH's+1 DMSO (blank).
2. Preparation of pH 4.5 and 7.4 buffers:
pH 4.5 buffer: To 12.5 of system solution (pION) qs to 500 mL of distilled water (pH 2.85-2.90); adjust the pH to pH 4.5 with 0.5 N NaOH.
pH 7.4 buffer: To 12.5 of system solution (pION) qs to 500 mL of distilled water (pH 2.85-2.90); adjust the pH to pH 7.4 with 0.5N NaOH.
Preparation of UV blank plate:
75 ul of buffer (pH 7.4 or pH 4.5) is added to UV plate followed by addition of […] of N-propanol. The solution is mixed and the blank spectrum is read using spectrophotometer.
Preparation of Reference UV plate:
10 ul of each stock sample (including DMSO control) is added to 190 ul of N-propanol to prepare the reference stock plate. Reference stock samples are mixed and 5 ul of each stock sample is added to UV blank plate after it is read spectrophotometrically. The reference stock sample is mixed with blank solution in UV plate and the reference spectrum is read using UV spectrophotometer.
Preparation of sample for incubation:
Solubility at pH 7.4: 6 ul of each stock sample (including DMSO control) is added to the storage plate containing 600 ul of pH 7.4 buffer, mixed and incubated for 16-19 hours. The plate is sealed well during the incubation process. The DMSO content in the sample is 1.0%. The concn in deep well plates is 100 uM
6 ul of each stock sample (including DMSO control) is added to the deep well plate containing 600 ul of pH 4.5 buffer, mixed and incubated for 16-19 hours. The plate is sealed well during the incubation process. The DMSO content in the sample is 1.0%. The concn in deep well plates is 100 uM
Preparation of sample UV plate:
At the end of the incubation period, 100 uL of sample from the storage plate is vacuum filtered using a filter plate. This step wets the filters and the filtrate is discarded. Another 200 ul of the sample from the deep well plate is vacuum filtered using the same filter block but a clean filter plate. 75 ul of the filtrate from the filter plate is transferred to a UV sample plate. 75 ul of N-propanol is added to this UV plate. The solution is mixed and the spectrum is read using the UV spectrophotometer.
The spectra collected for blank, reference and sample from 250-498 nm is analyzed using pION software. If the sample precipitates out, the solubility is reported as XX μg/ml. If there is no precipitation and the sample is soluble, solubility is reported as […] (YY being the initial concentration of the compound in the sample).

Values after ≈ are worked out from the molar mass of the structure shown. Bounds are passed on as bounds.

T1 sequence (Q02108 whole entry partner): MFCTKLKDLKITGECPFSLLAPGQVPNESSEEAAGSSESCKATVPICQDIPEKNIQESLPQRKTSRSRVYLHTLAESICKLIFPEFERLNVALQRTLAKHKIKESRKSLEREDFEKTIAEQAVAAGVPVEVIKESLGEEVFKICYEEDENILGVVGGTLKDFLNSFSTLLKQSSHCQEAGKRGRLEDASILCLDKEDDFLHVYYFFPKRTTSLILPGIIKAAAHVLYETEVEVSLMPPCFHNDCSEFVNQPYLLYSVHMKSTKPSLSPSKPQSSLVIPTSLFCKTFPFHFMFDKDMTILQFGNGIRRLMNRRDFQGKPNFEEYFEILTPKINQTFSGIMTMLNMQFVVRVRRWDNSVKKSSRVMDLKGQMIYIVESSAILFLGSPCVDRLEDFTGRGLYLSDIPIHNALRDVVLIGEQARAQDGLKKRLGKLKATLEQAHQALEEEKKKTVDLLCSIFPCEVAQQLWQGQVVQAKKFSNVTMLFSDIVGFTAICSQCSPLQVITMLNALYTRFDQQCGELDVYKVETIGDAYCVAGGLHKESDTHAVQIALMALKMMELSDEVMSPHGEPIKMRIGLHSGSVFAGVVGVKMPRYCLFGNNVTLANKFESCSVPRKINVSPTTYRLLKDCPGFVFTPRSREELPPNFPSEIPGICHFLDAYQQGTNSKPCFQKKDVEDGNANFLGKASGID
T1 sequence (Q02153 whole entry): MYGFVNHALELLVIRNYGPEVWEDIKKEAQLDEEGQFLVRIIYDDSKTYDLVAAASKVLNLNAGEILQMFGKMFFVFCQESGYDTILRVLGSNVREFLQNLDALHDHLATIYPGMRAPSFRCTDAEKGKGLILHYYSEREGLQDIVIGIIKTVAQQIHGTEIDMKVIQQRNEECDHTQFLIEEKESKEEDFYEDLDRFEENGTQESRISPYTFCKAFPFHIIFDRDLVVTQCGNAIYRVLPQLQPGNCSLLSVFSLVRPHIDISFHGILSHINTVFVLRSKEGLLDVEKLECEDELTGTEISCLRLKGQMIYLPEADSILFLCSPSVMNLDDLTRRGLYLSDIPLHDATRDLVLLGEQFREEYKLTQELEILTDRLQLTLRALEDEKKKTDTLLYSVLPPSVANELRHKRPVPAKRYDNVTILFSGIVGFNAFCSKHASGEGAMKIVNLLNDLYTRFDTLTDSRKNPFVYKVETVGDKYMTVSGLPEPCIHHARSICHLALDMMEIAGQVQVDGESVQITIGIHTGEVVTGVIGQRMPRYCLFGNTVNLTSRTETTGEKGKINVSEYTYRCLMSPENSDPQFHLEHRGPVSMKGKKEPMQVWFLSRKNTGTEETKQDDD

Consider `Cc1ccc(OCc2ccc3c(c2)CCN(C(C)C)C3)c(-c2cccc(-n3ncc(C(=O)O)c3C(F)(F)F)n2)c1` [Compound 21], for which the EC50 in data set [1] worked out at 25 nM. Moreover, in data set [2], the solubility kinetic was > 55 µg/mL and the “Sol pH 7.4” value is reported as >55 μg/mL.
In the same order, the values of `Cc1ccc(OCc2ccc3c(c2)CCN(C2CCCOC2)C3)c(-c2cccc(-n3ncc(C(=O)O)c3C(F)(F)F)n2)c1` (stereo not drawn) [Compound 22] are 1 nM, > 59 µg/mL and >59 μg/mL.
In the same order, the values of `Cc1ccc(OCc2ccc3c(c2)CCN(CC2CCOC2)C3)c(-c2cccc(-n3ncc(C(=O)O)c3C(F)(F)F)n2)c1` (stereo not drawn) [Compound 23] are 2 nM, > 59 µg/mL and >59 μg/mL.
In the same order, the values of `Cc1ccc(OCc2ccc3c(c2)CCN(Cc2cnccn2)C3)c(-c2cccc(-n3ncc(C(=O)O)c3C(F)(F)F)n2)c1` [Compound 24] are 9 nM, 40 µg/mL (≈ 66.6 µM) and >59 μg/mL.
Turning to `Cc1ccc(OCc2ccc3c(c2)CCN(CCC2CCOCC2)C3)c(-c2cccc(-n3ncc(C(=O)O)c3C(F)(F)F)n2)c1` [Compound 25], in data set [1], the half-maximal effective concentration (EC50) is 19 nM. Also, in data set [2], the solubility kinetic was > 62 µg/mL and the “Sol pH 7.4” value is listed as >62 μg/mL.
For `Cc1ccc(OCc2ccc3c(c2)CCN(CC2CCCOC2)C3)c(-c2cccc(-n3ncc(C(=O)O)c3C(F)(F)F)n2)c1` (stereo not drawn) [Compound 26], the EC50 in data set [1] was determined as 3 nM. Moreover, in data set [2], the solubility kinetic was > 60 µg/mL and the “Sol pH 7.4” value is reported as >60 μg/mL.
In the same order, the values of `Cc1ccc(OCc2ccc3c(c2)CCN(Cc2ccccc2)C3)c(-c2cccc(-n3ncc(C(=O)O)c3C(F)(F)F)n2)c1` [Compound 27] are 6 nM, 18.2 µg/mL (≈ 30.4 µM) and 25.6 μg/mL.
In the same order, the values of `Cc1ccc(OCc2ccc3c(c2)CCN(C(C)c2cnccn2)C3)c(-c2cccc(-n3ncc(C(=O)O)c3C(F)(F)F)n2)c1` (stereo not drawn) [Compound 28] are 9 nM, > 61 µg/mL and >61 μg/mL.
In the same order, the values of `Cc1ccc(OCc2ccc3c(c2)CCN(Cc2nc(C)cs2)C3)c(-c2cccc(-n3ncc(C(=O)O)c3C(F)(F)F)n2)c1` [Compound 29] are 0.5 nM, 12.9 µg/mL (≈ 20.8 µM) and >61 μg/mL.
For `Cc1ccc(OCc2ccc3c(c2)CCN(Cc2cncn2C)C3)c(-c2cccc(-n3ncc(C(=O)O)c3C(F)(F)F)n2)c1` [Compound 30], the 50% effective concentration (EC50) in data set [1] is 71 nM. In addition, in data set [2], the solubility kinetic was > 60 µg/mL and the “Sol pH 7.4” value was >60 μg/mL.
In the same order, the values of `Cc1ccc(OCc2ccc3c(c2)CCN(Cc2cc(C)on2)C3)c(-c2cccc(-n3ncc(C(=O)O)c3C(F)(F)F)n2)c1` [Compound 31] are 2 nM, 22 µg/mL (≈ 36.4 µM) and >60 μg/mL.
In the same order, the values of `CCn1cc(CN2CCc3cc(COc4ccc(C)cc4-c4cccc(-n5ncc(C(=O)O)c5C(F)(F)F)n4)ccc3C2)cn1` [Compound 32] are 12 nM, 10.8 µg/mL (≈ 17.5 µM) and 15.9 μg/mL.
In the same order, the values of `Cc1ccc(OCc2ccc3c(c2)CCN(C2CCC(C(F)(F)F)CC2)C3)c(-c2cccc(-n3ncc(C(=O)O)c3C(F)(F)F)n2)c1` (stereo not drawn) [Compound 33] are 6 nM, 6.3 µg/mL (≈ 9.57 µM) and 4.6 μg/mL.
Turning to `Cc1ccc(OCc2ccc3c(c2)CCN(C2CCOCC2)C3)c(-c2cccc(-n3ncc(C(=O)O)c3C(F)(F)F)n2)c1` [Compound 34], the concentration giving a half-maximal response (EC50) in data set [1] is 8 nM. Besides, in data set [2], the solubility kinetic is 41.5 µg/mL (≈ 70 µM) and the “Sol pH 7.4” value was 41.8 μg/mL.
In the same order, the values of `Cc1ccc(OCc2ccc3c(c2)CCN(C2CCOC2)C3)c(-c2cccc(-n3ncc(C(=O)O)c3C(F)(F)F)n2)c1` (stereo not drawn) [Compound 35, 1-(6-{5-methyl-2-[2-(tetrahydrofuran-3-yl)-1,2,3,4-tetrahydroisoquinolin-6-ylmethoxy]phenyl}pyridin-2-yl)-5-trifluoromethyl-1H-pyrazole-4-carboxylic acid] are 7 nM, 42.3 µg/mL (≈ 73.1 µM) and 43.0 μg/mL.
`Cc1ccc(OCc2ccc3c(c2)CCN(C)C3)c(-c2cccc(-c3sc(C(=O)O)cc3C)n2)c1` [Compound 37, 4-methyl-5-{6-[5-methyl-2-(2-methyl-1,2,3,4-tetrahydro-isoquinolin-6-ylmethoxy)phenyl]pyridin-2-yl}-thiophene-2-carboxylic acid]: in data set [1], the concentration giving a half-maximal response (EC50) was 198 nM. In data set [2], the solubility kinetic amounted to 14.1 µg/mL (≈ 29.1 µM) and the “Sol pH 7.4” value is 27.4 μg/mL.
In the same order, the values of `Cc1ccc(OCc2ccc3c(c2C)CCN(C)C3)c(-c2cccc(-n3ncc(C(=O)O)c3C(F)(F)F)n2)c1` [Compound 38] are 46 nM, 15.5 µg/mL (≈ 28.9 µM) and 18.4 μg/mL.
In the same order, the values of `Cc1ccc(OCc2ccc3c(c2)CCN(C)CC3)c(-c2cccc(-n3ncc(C(=O)O)c3C(F)(F)F)n2)c1` [Compound 40] are 32 nM, 16.3 µg/mL (≈ 30.4 µM) and 18.5 μg/mL.
As for `Cc1ccc(OCc2ccc3c(c2)CCN(C)C3)c(-c2cccc(-c3ncc(C(=O)O)n3C)n2)c1` [Compound 41], the EC50 in data set [1] worked out at 4540 nM. For the same compound, in data set [2], the solubility kinetic is > 58 µg/mL and the “Sol pH 7.4” value stood at 11.8 μg/mL.
In the same order, the values of `Cc1ccc(OCc2ccc3c(c2)CCN(C)C3)c(-c2cccc(-n3ncc(C(=O)O)c3C)n2)c1` [Compound 43, 5-methyl-1-{6-[5-methyl-2-(2-methyl-1,2,3,4-tetrahydro-isoquinolin-6-ylmethoxy)phenyl]pyridin-2-yl}-1H-pyrazole-4-carboxylic acid] are 1700 nM, 15.4 µg/mL (≈ 32.9 µM) and 19.6 μg/mL.
In the same order, the values of `Cc1ccc(OCc2ccc3c(c2)CCN(C)C3)c(-c2cccc(-c3csc(C(=O)O)c3C)n2)c1` [Compound 46, 3-methyl-4-{6-[5-methyl-2-(2-methyl1,2,3,4-tetrahydroisoquinolin-6-ylmethoxy)phenyl]pyridin-2-yl}thiophene-2-carboxylic acid] are 2000 nM, 0.1 µg/mL (≈ 0.206 µM) and 5.7 μg/mL.
